Measured values reported in US20030004194A1, “Method for treating fibrotic diseases or other indications VI” (Alteon, Inc., priority 2001, published 2003).
Where a name gives a salt, the structure may show the parent alone.

Assays:
[1] = system: Type IV collagen; experiment: In situ hybridization studies, Type IV collagen expression; format: in vivo
Text: (§1) Cardiovascular risk correlates more closely with the systolic and the pulse pressure than with the diastolic pressure. In diabetic patients, the cardiovascular risk profile of diabetic patients is strongly correlated to duration of diabetes, glycemic control and blood pressure. Structural matrix proteins contribute to the function of vessels and the heart, and changes in the physical behavior of cardiovascular walls are believed to be important determinants of circulatory function. In elderly individuals, the loss of compliance in the aorta leads to isolated systolic hypertension, which in turn expands the arterial wall and thereby diminishes the dynamic range of elasticity. Loss of compliance also results in the development of left ventricular hypertrophy.

[2] = system: TGFbeta; experiment: In situ hybridization studies, TGFbeta expression; format: in vivo
Text: as §1

[3] = Phase IIa clinical trial; format: in vivo, human
Text: When the heart pumps blood into the vascular system, the ability of the arteries to expand helps to push blood through the body. When arteries become stiff, as they do in the natural process of aging, the ability of the arteries to expand is diminished and also has consequences for the heart. The heart has to work harder to pump the blood into the stiff arteries, and eventually hypertrophies (enlarges in size) to accomplish this. A hypertrophied heart is an inefficient pump, and is one of the disorders that leads to congestive heart failure. […] The potential clinical benefit of this is to lessen the effort that the heart must expend to push blood throughout the body. The effect is also believed to contribute to preventing hypertrophy and subsequent inefficiency of the heart, which inefficiency would contribute to congestive heart failure.
Atherosclerosis is a disease that involves deposition of blood lipids in plaque in the arteries throughout the body. In coronary arteries, accumulation of plaque progressively leads to reduced coronary flow, with occlusion of the arteries causing focal death of cardiac tissue (myocardial infarction, heart attack). If the amount of tissue that dies is large enough, death ensures. […] Reducing local deposits of plaque should eventually lessen the risk of myocardial infarction and death due to heart attacks.
Pulse pressure is the difference between systolic and diastolic blood pressure. In a young human, systolic pressure is typically 120 mm Hg and diastolic pressure is 80 mm Hg, resulting in a pulse pressure of 40 mm Hg. With age, in many individuals pulse pressure increases, largely due to the increase in systolic pressure that results from stiff vessel disease. In individuals with pulse pressure greater than 60 mm Hg there is an increased risk of death from cardiovascular morbidities. […] This decrease in pulse pressure was believed to be due primarily to the effect of the agent on lowering the systolic blood pressure.

[4] = system: collagen in cardiovascular tissues; experiment: Mass of collagen in cardiovascular tissues after treatment; format: in vivo
Text: as §1

[5] = Dog model for diabetes, ventricular elasticity; format: in vivo
Text: as §1

[6] = In vivo studies of vascular stiffening; settings: in vivo studies in rodents, canines and in primates
Text: as §1

## Cc1sc[n+](CC(=O)c2ccccc2)c1C [3-[2-phenyl-2-oxoethyl]-4,5-dimethyl-thiazolium salt]
[1]
  expression of Type IV collagen: reduces the expression
[2]
  expression of TGFbeta: reduces the expression
[3]; Phase IIa clinical trial
  stiffness of arteries, as measured by the ratio of stroke volume (ml) to pulse pressure (mm Hg): showed an ability to reverse the stiffness of arteries
[3]; Phase IIa trial
  amount of circulating triglycerides (lipids): increased the amount of circulating triglycerides
[3]; Phase IIa trial, elderly patients with pulse pressures greater than 60 mm Hg, statistically significant
  pulse pressure: reduced pulse pressure
[4]
  mass of collagen in cardiovascular tissues: reduction in the mass of collagen
[5]
  end diastolic pressure (indicator of ventricular elasticity): returned to a value at about the mid-point between the disease impaired value and the value for control dogs
  end diastolic volume (indicator of ventricular elasticity): returned to a value at about the mid-point between the disease impaired value and the value for control dogs
[6]
  vascular stiffening: substantially ameliorating vascular stiffening
